Measured values reported in PubChem BioAssay (NCI).
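Dose response: 5 concentrations. Exposure: 48 h. Format: 96-well plates. Endpoint: linear interpolation; highest concentration if not reached. Abbreviation: GI50, concentration required for 50% inhibition of growth. Definition used: TGI = concentration required for complete inhibition of growth.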

Columns and labels:
Experiment in all cases: NCI-60 cell line screen, 48 h
SR leukemia = tested on: SR leukemia
NCI-H23 lung = tested on: NCI-H23 lung
MDA-MB-435 = tested on: MDA-MB-435
SNB-75 CNS = tested on: SNB-75 CNS
A498 renal = tested on: A498 renal
SK-OV-3 ovarian = tested on: SK-OV-3 ovarian
SW-620 colon = tested on: SW-620 colon
LOX IMVI melanoma = tested on: LOX IMVI melanoma
M14 melanoma = tested on: M14 melanoma
786-0 renal = tested on: 786-0 renal

Compound	GI50 (SR leukemia) [µM]	TGI (SR leukemia) [µM]	GI50 (NCI-H23 lung) [µM]	TGI (NCI-H23 lung) [µM]	GI50 (MDA-MB-435) [µM]	TGI (MDA-MB-435) [µM]	GI50 (SNB-75 CNS) [µM]	TGI (SNB-75 CNS) [µM]	GI50 (A498 renal) [µM]	TGI (A498 renal) [µM]	GI50 (SK-OV-3 ovarian) [µM]	TGI (SK-OV-3 ovarian) [µM]	GI50 (SW-620 colon) [µM]	TGI (SW-620 colon) [µM]	GI50 (LOX IMVI melanoma) [µM]	TGI (LOX IMVI melanoma) [µM]	GI50 (M14 melanoma) [µM]	TGI (M14 melanoma) [µM]	GI50 (786-0 renal) [µM]	TGI (786-0 renal) [µM]
C=CC(=O)N[C@H]1C=C(C)c2c(-c3cnc4ccccc4c3)c3c(N)ncnc3n2C1	18.3	> 100	19.6	54.5	17.8	67	3.56	30.5	0.351	3.99	0.171	4.2	23.8	> 95.5	7.16	23.5	10	32.4	5.14	36.8
CCCCCCCCCCCCCC(=S)NCCCC[C@H](NC(=O)OCc1ccccc1)C(=O)Nc1ccccc1	3.9	> 100	4.14	> 100	5.3	> 100	3.85	> 100	3.75	> 100	21.7	> 100	4.12	> 100	5.3	> 100	4.66	> 100	5.43	> 100
O=C(NNc1nc2c(F)cccc2n2cccc12)c1cnccn1	0.392	> 37.7	0.905	> 69.8	0.821	26.3	1.98	41.6	2.18	10.3	0.527	27.8	0.435	38.5	0.3	5.83	0.269	11.7	0.426	19.3
Fc1cccc(COc2ccc(Nc3ncncc3C#Cc3ccccc3)cc2Cl)c1	> 25	> 25	> 25	> 25	> 25	> 25	> 25	> 25	> 17.1	> 25	> 25	> 25	> 25	> 25	> 25	> 25	> 25	> 25	> 25	> 25
COc1ccc(C(=S)N2CCN(c3cccc(Cl)c3)CC2)cc1	> 100	> 100	> 100	> 100	62	> 100	45.1	> 100	> 100	> 100	> 100	> 100	> 100	> 100	> 100	> 100	> 100	> 100	> 100	> 100
CCOc1ccc(S(=O)(=O)/N=C2\C=C(SCC(=O)O)C(=O)c3ccccc32)cc1	0.538	5.26	2.81	14.2	1.75	3.63	2.5	4.96	21.6	37	15.2	29.7	3.31	11.1	2.31	10.2	2.72	8.12	17.4	36
